Test results from patent US20240041898A9, “NEUROSTEROIDS AND ENANTIOMERS THEREOF FOR THE PREVENTION AND TREATMENT OF NEURODEGENERATIVE CONDITIONS” (priority 2019, published 2024).
Several values for one entry are separate records, joined by “and”; a condition that tells them apart may be missing. Identical values can stand only once.

Assays:
LC3-II = experiment: Rat in vivo OHT model, Western blot of LC3-II; conditions: in vivo OHT eyes, 3 weeks after microbead injection, relative units, control = 1.00; for LC3-II expression (FIG. 6B), individual experiments 1-4: single values
Experimental: (§1) Example 7. Rat in vivo OHT model induced by intracameral injection of microbeads—For induction of ocular hypertension (OHT) in vivo, sterile 6 μm polystyrene microbeads were injected into the anterior chamber of the left eye of each animal using a single-step, sclero-corneal tunnel approach with a 35G nanoneedle (FIG. 4A). […] After stabilization of elevated IOP, animals were randomly divided into 3 groups (non-treated OHT, AlloP injection, and ent-AlloP injection). AlloP and ent-AlloP were administered as a one-time intravitreal injection one week following bead injection. Non-treated OHT animals received sterile vehicle intravitreally. As a further control, vehicle was intravitreally injected 7 days after intracameral administration of 10 μl of PBS. Three weeks after bead injections, IOP was 26.7±3.7 mmHg in non-treated OHT eyes compared to 9.9±0.9 mmHg in control eyes.
Rat in vivo OHT model—8-week old male Sprague-Dawley rats were deeply anesthetized with an intraperitoneal injection of a mixture of medetomidine hydrochloride (Cat #133-17474, CAS. No 86347-15-1, Wako Pure Chemical Industries Ltd., Osaka, Japan, 0.15 mg/kg), midazolam (Cat #135-13791, CAS. No 58786-99-5, Wako Pure Chemical Industries Ltd., 2 mg/kg), and butorphanol tartrate (Cat #021-19001, CAS. No […], Wako Pure Chemical Industries Ltd., 2.5 mg/kg), and intraocular pressure was increased unilaterally to approximately 35 mmHg, by intracameral injection of polystyrene microbeads using a single-step, sclero-corneal tunnel approach with a 35G-gauge nanoneedle (#LNAN-3505LM, Saito Medical Instruments Inc., Tokyo, Japan) connected to 100 μl WPI Nanofil 100 microsyringe (World Precision Instruments, Inc., Sarasota, FL). Sterile 6 μm polystyrene microbeads in a 1×10^6 microbeads/ml solution (Molecular Probes, Eugene, OR, USA) were concentrated to obtain a 1×10^7 microbeads/ml solution. […] Ocular hypertension was monitored preoperatively, and at 3 days, 1 week, 2 weeks or 3 weeks after the beads were injected. IOP was measured using a laboratory tonometer (TonoLab, Icare, Finland). […]

[1] = test system: NFL and optic nerves (ON); experiment: Rat in vivo OHT model, electron microscopy of AP and DAV in NFL and optic nerve; conditions: in vivo OHT eyes; for Autophagosomes (AP) in the NFL (FIG. 5M), Total / Degenerative autophagic vacuoles (DAV) in the NFL (FIG. 5N), Total: Total of 10 areas; for Autophagosomes (AP)/25 μm2 in the NFL (FIG. 5M), individual areas 1-10 / Degenerative autophagic vacuoles (DAV)/25 μm2 in the NFL (FIG. 5N), individual areas 1-10 / Autophagosomes (AP)/100 μm2 in the ON (FIG. 5Y), individual areas 1-10 / Degenerative autophagic vacuoles (DAV)/100 μm2 in the ON (FIG. 5Z), individual areas 1-10: single values
Experimental: as §1
Rat in vivo OHT model—8-week old male Sprague-Dawley rats were deeply anesthetized with an intraperitoneal injection of a mixture of medetomidine hydrochloride (Cat #133-17474, CAS. No 86347-15-1, Wako Pure Chemical Industries Ltd., Osaka, Japan, 0.15 mg/kg), midazolam (Cat #135-13791, CAS. No 58786-99-5, Wako Pure Chemical Industries Ltd., 2 mg/kg), and butorphanol tartrate (Cat #021-19001, CAS. No […], Wako Pure Chemical Industries Ltd., 2.5 mg/kg), and intraocular pressure was increased unilaterally to approximately 35 mmHg, by intracameral injection of polystyrene microbeads using a single-step, sclero-corneal tunnel approach with a 35G-gauge nanoneedle (#LNAN-3505LM, Saito Medical Instruments Inc., Tokyo, Japan) connected to 100 μl WPI Nanofil 100 microsyringe (World Precision Instruments, Inc., Sarasota, FL). Sterile 6 μm polystyrene microbeads in a 1×10^6 microbeads/ml solution (Molecular Probes, Eugene, OR, USA) were concentrated to obtain a 1×10^7 microbeads/ml solution. This solution was suspended in PBS. The microbeads suspended in PBS were aspirated into a 100 μl Hamilton microsyringe and injected into the anterior chamber of […] of each animal. 10 μl of the microbead suspension were injected without contacting the cornea or iris with the needle. After stabilization of the elevated IOP, animals were randomly divided into 3 groups (non-treated OHT, AlloP injection, and ent-AlloP injection). AlloP and ent-AlloP were dissolved in 20% w/v (2-Hydroxypropyl)-β-cyclodextrin (2HBCD) in saline solution at concentration of 0.05% (w/v) solution, and injected into the vitreous chamber in a total volume of 1 μl using a Hamilton syringe adapted with a 35 G-gauge nanoneedle 1 week after the beads were injected under halothane inhalation anesthesia. OHT animals (vehicle control) received sterile 1 μl 20% (w/v) 2HBCD with PBS. As a further control, 1 μl 20% (w/v) 2HBCD was intravitreally injected 7 days after intracameral injection with 10 μl of PBS. The number of animals used in each experiment is indicated in the corresponding method. […] Ocular hypertension was monitored preoperatively, and at 3 days, 1 week, 2 weeks or 3 weeks after the beads were injected. IOP was measured using a laboratory tonometer (TonoLab, Icare, Finland).
Electron Microscopy—Retinal specimens were trimmed to a smaller size, and ultrathin sections (75 nm) were cut with a diamond knife and suspended over formvar-coated slot grids (1×2 mm opening). The sections were stained with uranyl acetate and lead citrate and viewed in a transmission electron microscope (H-7650, Hitachi High-Technologies Corp., Tokyo, Japan). Numbers of AP and DAV inside NFLs and axons were determined as the sum in 10 different areas of 25 μm^2 each from each sample. The analysis was performed in three eyes per experimental condition.

Row | Compound | LC3-II expression (FIG. 6B), Average (LC3-II; Average of 4) | LC3-II expression (FIG. 6B), individual experiments 1-4 (LC3-II) | Degenerative autophagic vacuoles (DAV)/25 μm2 in the NFL (FIG. 5N), Average ([1]; intravitreal, Average of 10) | Autophagosomes (AP) in the NFL (FIG. 5M), Total ([1]; intravitreal) | Degenerative autophagic vacuoles (DAV) in the NFL (FIG. 5N), Total ([1]; intravitreal) | Autophagosomes (AP)/25 μm2 in the NFL (FIG. 5M), individual areas 1-10 ([1]; intravitreal) | Degenerative autophagic vacuoles (DAV)/25 μm2 in the NFL (FIG. 5N), individual areas 1-10 ([1]; intravitreal) | Autophagosomes (AP)/100 μm2 in the ON (FIG. 5Y), Average ([1]; optic nerve, Average of 10) | Degenerative autophagic vacuoles (DAV)/100 μm2 in the ON (FIG. 5Z), Average ([1]; optic nerve, Average of 10) | Autophagosomes (AP)/100 μm2 in the ON (FIG. 5Y), individual areas 1-10 ([1]; optic nerve) | Degenerative autophagic vacuoles (DAV)/100 μm2 in the ON (FIG. 5Z), individual areas 1-10 ([1]; optic nerve)
1 | CC(=O)[C@H]1CC[C@H]2[C@@H]3CC[C@H]4C[C@H](O)CC[C@]4(C)[C@H]3CC[C@]12C [AlloP, allopregnanolone] | 3.00 | 2.73 and 3.32 and 2.82 and 3.11 | 0.5 /25 μm2 | 12 | 5 | 2 /25 μm2 (2×) and 1 /25 μm2 (8×) | 0 /25 μm2 (7×) and 2 /25 μm2 (2×) and 1 /25 μm2 | 1.1 /100 μm2 | 0.0 /100 μm2 | 1 /100 μm2 (9×) and 2 /100 μm2 | 0 /100 μm2
2 | CC(=O)[C@@H]1CC[C@@H]2[C@H]3CC[C@@H]4C[C@@H](O)CC[C@@]4(C)[C@@H]3CC[C@]21C [ent-AlloP, ent-allopregnanolone] |  | 4.96 and 4.97 and 4.27 and 5.04 |  | 1 | 22 | 0 /25 μm2 (9×) and 1 /25 μm2 | 1 /25 μm2 and 2 /25 μm2 (5×) and 4 /25 μm2 (2×) and 3 /25 μm2 and 0 /25 μm2 |  |  | 0 /100 μm2 (9×) and 1 /100 μm2 | 0 /100 μm2 and 1 /100 μm2 (8×) and 2 /100 μm2
